Results as given in paper PMC6576746, “Rational discovery of dual-indication multi-target PDE/Kinase inhibitor for precision anti-cancer therapy using structural systems pharmacology” (PLoS Computational Biology, 2019).

Key:
Test in all cases: cells
Design in all cases: species or system panel of human cancer cell lines; Eurofins OncoPanel proliferation; nuclei count by high-content fluorescence imaging, 10-point dose response
A427 = conditions: Homo sapiens, A-427, 72 h, cell count, 3 days
Method in brief: (§1)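 Cells in RPMI 1640/10% FBS or special medium received compound the day after seeding, with a time-zero plate; 3-day incubation at 37°C, 5% CO2. Nuclei imaged by fluorescence microscopy; 10 half-log doses from 100 μM, 0.1% DMSO. EC50, IC50, GI50 and activity area (0–10) from curve fits.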

Capan-2 = conditions: Homo sapiens, Capan-2, 72 h, cell count, 3 days
Method in brief: as §1

H4 = conditions: 72 h, cell count, 3 days
Method in brief: as §1

Hs 229.T = conditions: 72 h, cell count, 3 days
Method in brief: as §1

LS513 = conditions: Homo sapiens, LS-513, 72 h, cell count, 3 days
Method in brief: as §1

OVCAR3 = conditions: Homo sapiens, OVCAR-3, 72 h, cell count, 3 days
Method in brief: as §1

SK-UT-1 = conditions: Homo sapiens, SK-UT-1, 72 h, cell count, 3 days
Method in brief: as §1

SU-DHL-10 = conditions: Homo sapiens, SU-DHL10, 72 h, cell count, 3 days
Method in brief: as §1

SW620 = conditions: Homo sapiens, SW-620, 72 h, cell count, 3 days
Method in brief: as §1

SaOS2 = conditions: Homo sapiens, SAOS-2, 72 h, cell count, 3 days
Method in brief: as §1

SiHa = conditions: Homo sapiens, SiHa, 72 h, cell count, 3 days
Method in brief: as §1

TF-1 = conditions: Homo sapiens, TF-1, 72 h, cell count, 3 days
Method in brief: as §1

VA-ES-BJ = conditions: 72 h, cell count, 3 days
Method in brief: as §1

WiDr = conditions: Homo sapiens, WiDr, 72 h, cell count, 3 days
Method in brief: as §1

[1] = 50% of maximum possible response

`C[C@@H]1CC(=O)NN=C1c1ccc(NN=C(C#N)C#N)cc1` [levosimendan] showed an IC50 (A427; [1]) of 23.6 µM, a GI50 (A427; corrected for time zero) of 18.4 µM and an EC50 (A427; curve inflection point) of 23.6 µM. The IC50 (Capan-2; [1]) was 49.7 µM, the GI50 (Capan-2; corrected for time zero) was 42.3 µM and the EC50 (Capan-2; curve inflection point) was 49.7 µM. The IC50 (H4; [1]) was > 100 µM, the GI50 (H4; corrected for time zero) was > 100 µM and the EC50 (H4; curve inflection point) was > 100 µM. It also gave an IC50 (Hs 229.T; [1]) of 100 µM, a GI50 (Hs 229.T; corrected for time zero) of 60.3 µM and an EC50 (Hs 229.T; curve inflection point) of 100 µM. For the same compound, the IC50 (LS513; [1]) was 17.2 µM, the GI50 (LS513; corrected for time zero) was 14.7 µM and the EC50 (LS513; curve inflection point) was 17.2 µM. It also gave an IC50 (OVCAR3; [1]) of 42.6 µM, a GI50 (OVCAR3; corrected for time zero) of 24.1 µM and an EC50 (OVCAR3; curve inflection point) of 42.6 µM. It also gave an IC50 (SK-UT-1; [1]) of 11.8 µM, a GI50 (SK-UT-1; corrected for time zero) of 9.1 µM and an EC50 (SK-UT-1; curve inflection point) of 11.8 µM. It also gave an IC50 (SU-DHL-10; [1]) of 13.3 µM, a GI50 (SU-DHL-10; corrected for time zero) of 12 µM and an EC50 (SU-DHL-10; curve inflection point) of 13.3 µM. For the same compound, the IC50 (SW620; [1]) was 19.7 µM, the GI50 (SW620; corrected for time zero) was 14.9 µM and the EC50 (SW620; curve inflection point) was 18.7 µM. It also gave an IC50 (SaOS2; [1]) of 54.5 µM, a GI50 (SaOS2; corrected for time zero) of 35.7 µM and an EC50 (SaOS2; curve inflection point) of 54.5 µM. For the same compound, the IC50 (SiHa; [1]) was > 100 µM, the GI50 (SiHa; corrected for time zero) was 60 µM and the EC50 (SiHa; curve inflection point) was 41.2 µM. It also gave an IC50 (TF-1; [1]) of 41.7 µM, a GI50 (TF-1; corrected for time zero) of 19.7 µM and an EC50 (TF-1; curve inflection point) of 41.7 µM. The IC50 (VA-ES-BJ; [1]) was 51.7 µM, the GI50 (VA-ES-BJ; corrected for time zero) was 42.4 µM and the EC50 (VA-ES-BJ; curve inflection point) was 51.7 µM. It also gave an IC50 (WiDr; [1]) of 77.6 µM, a GI50 (WiDr; corrected for time zero) of 70.6 µM and an EC50 (WiDr; curve inflection point) of 77.6 µM.
